Results on three compounds are retold here after patent publication US9744175B2, “Compositions of combinations of non-covalent DNA binding agents and anti-cancer and/or anti-inflammatory agents and their use in disease treatment” (INDUS PHARMACEUTICALS, INC., priority 2012, dated 2017).

One test concerns U2OS. The experiment in a line: Growth inhibition in tumor cell lines (Table 2). The class given is cell-based, human. Particulars: Osteosacroma, WT, lack of EGFR.
The test system of the next test is CEM. Description: Growth inhibition in tumor cell lines (Table 2). Type of test: cell-based, human. Particulars: leukemia, PTEN deficiency. Here is the method: (§1) Three novel non-covalent DNA binding agents of the invention, NSC 718813, NSC 723734 and NSC 726260, are tested in five different EGFR-resistant, K-Ras mutant cancer cell lines. These cell lines represent colorectal (SW480, SW620 and HCT116) and breast cancer (MDA-MB-231 and […]).
(§2) The in vitro assays to evaluate the anticancer potential of non-covalent DNA binding agents were measured by using one or more of the assays described below.
(§3) Tumor cells are plated in 96 well plates at a density of 8,000 to 10,000 cells per well in 100 uL volume and grown overnight. On the second day, the cells are supplemented with medium containing an appropriate dilution of the compounds to be tested. The cells are treated with the test compounds for two more days and the growth medium was replaced with fresh medium containing 3% Alamar Blue, incubated for 2-3 hours and plates are read in a SpectraMax Gemini XS fluorescence plate reader (Molecular Devices).

A further test relates to HCT116. The experiment in a line: Growth inhibition in tumor cell lines (Table 2). The class given is cell-based, human. Particulars: HCT116, colon, KRAS mutation, MLH1 deficiency. Here is the method:
as §1, §2, §3

In the next test the test system is MDA-MB-468. Description: Growth inhibition in tumor cell lines (Table 2). Type of test: cell-based, human. Particulars: MDA-MB-468, breast, ERK+ (EGFR over expression), PTEN deficiency. As to the method: as §1, §2, §3
A further test has as its system MDA231. The experiment in a line: Growth inhibition in tumor cell lines (Table 2). The class given is cell-based, human. Particulars: MDA231, breast, KRAS & BRAF (ERK+). As to the method: as §1, §2, §3
The next test has as its system SW480. Description: Growth inhibition in tumor cell lines (Table 2). The class given is cell-based, human. Particulars: SW480, colon, KRAS mutation. As to the method: as §1, §2, §3
For another test, the system named is SW620. Description: Growth inhibition in tumor cell lines (Table 2). Particulars: SW620, colon, KRAS mutation. The class given is cell-based, human. As to the method: as §1, §2, §3
In a further test the test system is Jurkat. Description: Growth inhibition in tumor cell lines (Table 2). The class given is cell-based, human. Particulars: leukemia, PTEN deficiency.
Another test has as its system Wild type yeast. Description: Alamar Blue cell survival assay in yeast cells. The class given is cell-based. Here is the method:
(§4) The cells are diluted 100-fold in yeast complete medium. 100 μL of diluted cells are seeded in 96 well plates with or without a non-covalent DNA binding compound and incubated for 24 hours at 30° C. The following day, an equal volume of yeast complete medium containing 1% alamar blue is added and incubated at 30° C. for two hours. Fluorescence intensity is measured in a fluorescent reader to calculate the inhibition effect of non-covalent DNA binding agents in mutant and wild type yeast cells.
(§5) Yeast cells that carry mutations in different genes involved in homologous recombination (rad 50, rad51, rad52, and rad57) and nucleotide excision/double strand repair (rad1) are grown to stationary culture overnight.
(Resazurin is reduced to fluorescent resorufin, in cell work by metabolically active cells.)

The subject of the next test is yeast rad1 mutation. Description: Alamar Blue cell survival assay in yeast cells. The class given is cell-based. Here is the method:
as §4, §5

The subject of a further test is yeast rad50 mutation. Description: Alamar Blue cell survival assay in yeast cells. The class given is cell-based. Here is the method: as §4, §5
A further test relates to yeast rad51 mutation. The experiment in a line: Alamar Blue cell survival assay in yeast cells. The class given is cell-based. As to the method: as §4, §5
For a further test, the system named is yeast rad52 mutation. The experiment in a line: Alamar Blue cell survival assay in yeast cells. The class given is cell-based. As to the method:
as §4, §5

In the next test the test system is U2OS Wild type. Description: siRNA inhibition of MMR, p53 and REV functions, alamar blue growth inhibition. Particulars: for Fold improvement in IC50, mlh1: mlh1 siRNA vs control; for IC50: no siRNA knock out, read-out: IC50, Control; for Fold improvement in IC50, p53: p53 siRNA vs control; for Fold improvement in IC50, rev: rev siRNA vs control. The class given is cell-based, human. As to the method: (§6) siRNA specific for different genes is purchased from Dharmacon (Thermo. Fisher Scientific Dharmacon Products, Lafayette, Colo. 80026) and the protocol recommended by the supplier is utilized. Confluent cells are trypsinized and 5000 cells are seeded in a well in the presence or absence of siRNA in 100 μL medium. The cells are incubated with siRNA for two days. A non-covalent DNA binding agent of the invention is added in a 10 μL volume and incubated for another 48 hours. After treatment with the agent, the medium is replaced with 1% alamar blue containing medium to measure fluorescence after two hours.
as §6, with “from Dharmacon (Thermo Fisher Scientific” for “from Dharmacon (Thermo. Fisher Scientific”, “two hours. […] The results are presented in FIGS. 14-18 (SEQ ID NO:3-12, respectively) and Table 7.” for “two hours.”

As to `COc1cc2c(cc1OCCCCCOc1cc3c(cc1OC)C(=O)N1CCC[C@H]1C(=O)N3)N=C[C@@H]1CCCN1C2=O` [NSC 718813], the IC50 (commonly the concentration that inhibits the measured activity by half) was 202 nM in the test with U2OS; 51 ± 0.6 nM with CEM; 17 nM with HCT116; 8 ± 1.2 nM in the test with MDA-MB-468; 54 nM with MDA231; 48 nM with SW480. In addition, the half-maximal inhibitory concentration (IC50) in the test on SW620 was 236 ± 37.2 nM; with Jurkat it was 17 ± 0.2 nM; in the test on Wild type yeast, greater than 250000 nM; with yeast rad1 mutation it was 11000 nM; in the test with yeast rad50 mutation, 90000 nM; in the test on yeast rad51 mutation, 7000 nM. The IC50 in the test on yeast rad52 mutation is 90000 nM; in the test on U2OS Wild type, 300 nM. In addition, the “Fold improvement in IC50, mlh1” value in the test on U2OS Wild type stood at 3.0 fold. The “Fold improvement in IC50, p53” value in the test with U2OS Wild type is on record as 10 fold. Moreover, the “Fold improvement in IC50, rev” value with U2OS Wild type was determined as 5 fold.

For `COc1cc2c(cc1OCCCCN1CCN(CCCCOc3cc4c(cc3OC)C(=O)N3CCC[C@H]3C=N4)CC1)N=C[C@@H]1CCCN1C2=O` [NSC 723734], the 50% inhibitory concentration (IC50) in the test with U2OS stood at 178 nM; with CEM, 49 ± 0.8 nM; with HCT116, 160 nM; in the test with MDA-MB-468 it was 22 ± 0.7 nM; in the test with MDA231 it was 394 nM; in the test with SW480, 575 nM. The half-maximal inhibitory concentration (IC50) in the test on SW620 is 175 ± 25 nM; in the test with Jurkat, 45 ± 4 nM; with Wild type yeast, greater than 250000 nM; with yeast rad1 mutation, 15000 nM; in the test with yeast rad50 mutation, 17000 nM; with yeast rad51 mutation, 28000 nM. Further, the half-maximal inhibitory concentration (IC50) with yeast rad52 mutation worked out at 50000 nM; with U2OS Wild type, 70 nM. For the same compound, the “Fold improvement in IC50, mlh1” value in the test with U2OS Wild type came out at 3.5 fold. Moreover, in the test on U2OS Wild type, the “Fold improvement in IC50, p53” value was found to be 1.2 fold. In addition, the “Fold improvement in IC50, rev” value in the test on U2OS Wild type is greater than 70 fold.

On to `COc1cc2c(cc1OCCCC(=O)Nc1ccc3ccc4cccc5ccc1c3c45)N=C[C@@H]1CCCN1C2=O` [NSC 726260], for which the IC50 in the test with U2OS stood at 397 nM; in the test on CEM, 161 ± 0.4 nM; in the test with HCT116 it was 550 nM; in the test on MDA-MB-468 it was 364 nM; with MDA231, 501 nM; in the test on SW480 it was 1080 nM. The concentration for half-maximal inhibition (IC50) with SW620 amounted to 1050 ± 50 nM; in the test on Jurkat, 114 ± 26.7 nM; in the test with Wild type yeast, 45000 nM; with yeast rad1 mutation, 15000 nM; in the test with yeast rad50 mutation, 20000 nM; with yeast rad51 mutation, 4500 nM. The IC50 with yeast rad52 mutation stood at 15000 nM; in the test on U2OS Wild type, 400 nM. In addition, the “Fold improvement in IC50, mlh1” value in the test with U2OS Wild type is given as 135 fold. In addition, the “Fold improvement in IC50, p53” value with U2OS Wild type came out at 1.1 fold. Besides, the “Fold improvement in IC50, rev” value with U2OS Wild type came out at 135 fold.
